From patent US20260042731A1, “(2,4-DICHLOROPHENOXY)ACETIC ACID ANALOGS” (CORTEVA AGRISCIENCE LLC, priority 2022, published 2026)
Like-named read-outs stand apart in the source and are kept apart here.

Legend:
[1] = Volatility of compounds measured by thermogravimetric analysis (TGA); type: physicochemical
[2] = test system: Ambrosia artemisiifolia (AMBEL), common ragweed; test: Postemergence herbicide evaluation, growth of Ambrosia artemisiifolia (AMBEL); type: in vivo; details: Ambrosia artemisiifolia, post-emergence, read-out: AVE. AMBEL, percent reduction in plant size relative to the untreated control; for pest or weed control at 280 g/ha: 280 g ae/ha; for pest or weed control at 560 g/ha: 560 g ae/ha
[3] = test system: Abutilon theophrasti (ABUTH), velvetleaf; test: Postemergence herbicide evaluation, growth of Abutilon theophrasti (ABUTH); type: in vivo; details: Abutilon theophrasti, post-emergence, read-out: AVE. ABUTH, percent reduction in plant size relative to the untreated control; for pest or weed control at 280 g/ha: 280 g ae/ha; for pest or weed control at 560 g/ha: 560 g ae/ha
[4] = test system: weeds ABUTH, AMATA, AMBEL, CHEAL, ERICA; test: Postemergence herbicide evaluation, overall average % weed control (ABUTH, AMATA, AMBEL, CHEAL, ERICA); type: in vivo; details: post-emergence, read-out: Overall Ave % Weed Control; for pest or weed control at 280 g/ha: 280 g ae/ha; for pest or weed control at 560 g/ha: 560 g ae/ha
[5] = test system: Amaranthus rudis (AMATA), tall water hemp; test: Postemergence herbicide evaluation, growth of Amaranthus rudis (AMATA); type: in vivo; details: Amaranthus tuberculatus, post-emergence, read-out: Ave. AMATA, percent reduction in plant size relative to the untreated control; for pest or weed control at 280 g/ha: 280 g ae/ha; for pest or weed control at 560 g/ha: 560 g ae/ha
[6] = test system: Chenopodium album (CHEAL), common lambsquarters; test: Postemergence herbicide evaluation, growth of Chenopodium album (CHEAL); type: in vivo; details: Chenopodium album, post-emergence, read-out: Ave. CHEAL, percent reduction in plant size relative to the untreated control; for pest or weed control at 280 g/ha: 280 g ae/ha; for pest or weed control at 560 g/ha: 560 g ae/ha
[7] = test system: glyphosate resistant Conyza canadensis (L.) (ERICA), horseweed; test: Postemergence herbicide evaluation, growth of Conyza canadensis (ERICA); type: in vivo; details: Erigeron canadensis, post-emergence, read-out: Ave. ERICA, percent reduction in plant size relative to the untreated control; for pest or weed control at 280 g/ha: 280 g ae/ha; for pest or weed control at 560 g/ha: 560 g ae/ha
[8] = value marked *: decomposition of the material was observed

| Structure (SMILES) | pest or weed control at 280 g/ha ([2]; 168 h, 7 DAA) [%] | pest or weed control at 560 g/ha ([2]; 168 h, 7 DAA) [%] | pest or weed control at 280 g/ha ([2]; 336 h, 14 DAA) [%] | pest or weed control at 560 g/ha ([2]; 336 h, 14 DAA) [%] | pest or weed control at 280 g/ha ([2]; 504 h, 21 DAA) [%] | pest or weed control at 560 g/ha ([2]; 504 h, 21 DAA) [%] | pest or weed control at 280 g/ha ([3]; 168 h, 7 DAA) [%] | pest or weed control at 560 g/ha ([3]; 168 h, 7 DAA) [%] | pest or weed control at 280 g/ha ([3]; 336 h, 14 DAA) [%] | pest or weed control at 560 g/ha ([3]; 336 h, 14 DAA) [%] | pest or weed control at 280 g/ha ([3]; 504 h, 21 DAA) [%] | pest or weed control at 560 g/ha ([3]; 504 h, 21 DAA) [%] | pest or weed control at 280 g/ha ([4]; 168 h, 7 DAA) [%] | pest or weed control at 560 g/ha ([4]; 168 h, 7 DAA) [%] | pest or weed control at 280 g/ha ([4]; 336 h, 14 DAA) [%] | pest or weed control at 560 g/ha ([4]; 336 h, 14 DAA) [%] | pest or weed control at 280 g/ha ([4]; 504 h, 21 DAA) [%] | pest or weed control at 560 g/ha ([4]; 504 h, 21 DAA) [%] | pest or weed control at 280 g/ha ([5]; 168 h, 7 DAA) [%] | pest or weed control at 560 g/ha ([5]; 168 h, 7 DAA) [%] | further results |
| --- | --- | --- | --- | --- | --- | --- | --- | --- | --- | --- | --- | --- | --- | --- | --- | --- | --- | --- | --- | --- | --- |
| C/C(=N\OC(=O)COc1ccc(Cl)cc1Cl)c1ccccc1Cl [Compound A24] | 70 | 75 | 75 | 75 | 97.5 | 100 | 62.5 | 57.5 | 77.5 | 67.5 | 80 | 85 | 74 | 71.5 | 87 | 83.8 | 89.6 | 89.8 | 82.5 | 72.5 | TGA Data (rate of weight loss, volatility) [1]: 0.03549 µg/min; pest or weed control at 280 g/ha ([5]; 336 h, 14 DAA): 92.5%; pest or weed control at 560 g/ha ([5]; 336 h, 14 DAA): 90%; pest or weed control at 280 g/ha ([5]; 504 h, 21 DAA): 77.5%; pest or weed control at 560 g/ha ([5]; 504 h, 21 DAA): 72.5%; pest or weed control at 280 g/ha ([6]; 168 h, 7 DAA): 75%; pest or weed control at 560 g/ha ([6]; 168 h, 7 DAA): 77.5%; pest or weed control at 280 g/ha ([6]; 336 h, 14 DAA): 91.5%; pest or weed control at 560 g/ha ([6]; 336 h, 14 DAA): 95%; pest or weed control at 280 g/ha ([6]; 504 h, 21 DAA): 98.5%; pest or weed control at 560 g/ha ([6]; 504 h, 21 DAA): 94.5%; pest or weed control at 280 g/ha ([7]; 168 h, 7 DAA): 80%; pest or weed control at 560 g/ha ([7]; 168 h, 7 DAA): 75%; pest or weed control at 280 g/ha ([7]; 336 h, 14 DAA): 98.5%; pest or weed control at 560 g/ha ([7]; 336 h, 14 DAA): 91.5%; pest or weed control at 280 g/ha ([7]; 504 h, 21 DAA): 94.5%; pest or weed control at 560 g/ha ([7]; 504 h, 21 DAA): 97% |
| O=C(COc1ccc(Cl)cc1Cl)O/N=C1\CCCc2ccccc21 [Compound A25] | 70 | 80 | 62.5 | 67.5 | 87.5 | 82.5 | 27.5 | 30 | 22.5 | 27.5 | 17.5 | 30 | 59 | 62.5 | 62.7 | 69.5 | 59.5 | 70.1 | 65 | 57.5 | TGA Data (rate of weight loss, volatility) [1]: 0.8976 µg/min; pest or weed control at 280 g/ha ([5]; 336 h, 14 DAA): 80%; pest or weed control at 560 g/ha ([5]; 336 h, 14 DAA): 82.5%; pest or weed control at 280 g/ha ([5]; 504 h, 21 DAA): 50%; pest or weed control at 560 g/ha ([5]; 504 h, 21 DAA): 64%; pest or weed control at 280 g/ha ([6]; 168 h, 7 DAA): 72.5%; pest or weed control at 560 g/ha ([6]; 168 h, 7 DAA): 72.5%; pest or weed control at 280 g/ha ([6]; 336 h, 14 DAA): 65%; pest or weed control at 560 g/ha ([6]; 336 h, 14 DAA): 92.5%; pest or weed control at 280 g/ha ([6]; 504 h, 21 DAA): 75%; pest or weed control at 560 g/ha ([6]; 504 h, 21 DAA): 75%; pest or weed control at 280 g/ha ([7]; 168 h, 7 DAA): 60%; pest or weed control at 560 g/ha ([7]; 168 h, 7 DAA): 72.5%; pest or weed control at 280 g/ha ([7]; 336 h, 14 DAA): 83.5%; pest or weed control at 560 g/ha ([7]; 336 h, 14 DAA): 77.5%; pest or weed control at 280 g/ha ([7]; 504 h, 21 DAA): 67.5%; pest or weed control at 560 g/ha ([7]; 504 h, 21 DAA): 99% |
| C/C(=N\OC(=O)COc1ccc(Cl)cc1Cl)c1cccnc1 [Compound A26] | 80 | 77.5 | 72.5 | 90 | 100 | 100 | 62.5 | 67.5 | 72.5 | 92.5 | 96 | 100 | 72 | 80.3 | 85.3 | 93.4 | 90.2 | 97.5 | 65 | 94 | TGA Data (rate of weight loss, volatility) [1, 8]: 1.599* μg/min; pest or weed control at 280 g/ha ([5]; 336 h, 14 DAA): 85%; pest or weed control at 560 g/ha ([5]; 336 h, 14 DAA): 90%; pest or weed control at 280 g/ha ([5]; 504 h, 21 DAA): 67.5%; pest or weed control at 560 g/ha ([5]; 504 h, 21 DAA): 92.5%; pest or weed control at 280 g/ha ([6]; 168 h, 7 DAA): 72.5%; pest or weed control at 560 g/ha ([6]; 168 h, 7 DAA): 80%; pest or weed control at 280 g/ha ([6]; 336 h, 14 DAA): 97.5%; pest or weed control at 560 g/ha ([6]; 336 h, 14 DAA): 95%; pest or weed control at 280 g/ha ([6]; 504 h, 21 DAA): 87.5%; pest or weed control at 560 g/ha ([6]; 504 h, 21 DAA): 95%; pest or weed control at 280 g/ha ([7]; 168 h, 7 DAA): 80%; pest or weed control at 560 g/ha ([7]; 168 h, 7 DAA): 82.5%; pest or weed control at 280 g/ha ([7]; 336 h, 14 DAA): 99%; pest or weed control at 560 g/ha ([7]; 336 h, 14 DAA): 99.5%; pest or weed control at 280 g/ha ([7]; 504 h, 21 DAA): 100%; pest or weed control at 560 g/ha ([7]; 504 h, 21 DAA): 100% |
| C/C(=N\OC(=O)COc1ccc(Cl)cc1Cl)c1ccncc1 [Compound A27] | 80 | 90 | 75 | 82.5 | 100 | 100 | 60 | 82.5 | 75 | 98.5 | 92.5 | 100 | 75.5 | 85 | 87.6 | 94.3 | 90.4 | 95 | 75 | 85 | TGA Data (rate of weight loss, volatility) [1, 8]: 1.27* μg/min; pest or weed control at 280 g/ha ([5]; 336 h, 14 DAA): 90%; pest or weed control at 560 g/ha ([5]; 336 h, 14 DAA): 96%; pest or weed control at 280 g/ha ([5]; 504 h, 21 DAA): 62.5%; pest or weed control at 560 g/ha ([5]; 504 h, 21 DAA): 77.5%; pest or weed control at 280 g/ha ([6]; 168 h, 7 DAA): 77.5%; pest or weed control at 560 g/ha ([6]; 168 h, 7 DAA): 85%; pest or weed control at 280 g/ha ([6]; 336 h, 14 DAA): 98%; pest or weed control at 560 g/ha ([6]; 336 h, 14 DAA): 94.5%; pest or weed control at 280 g/ha ([6]; 504 h, 21 DAA): 98.5%; pest or weed control at 560 g/ha ([6]; 504 h, 21 DAA): 100%; pest or weed control at 280 g/ha ([7]; 168 h, 7 DAA): 85%; pest or weed control at 560 g/ha ([7]; 168 h, 7 DAA): 82.5%; pest or weed control at 280 g/ha ([7]; 336 h, 14 DAA): 100%; pest or weed control at 560 g/ha ([7]; 336 h, 14 DAA): 100%; pest or weed control at 280 g/ha ([7]; 504 h, 21 DAA): 98.5%; pest or weed control at 560 g/ha ([7]; 504 h, 21 DAA): 97.5% |
